By GI50 is commonly meant the concentration giving 50% growth inhibition. One may read the IC50 as the concentration that gives 50% inhibition.

Among the data in ChEMBL document CHEMBL5608170, “An insight into sustainable and green chemistry approaches for the synthesis of quinoline derivatives as anticancer agents” (Eur J Med Chem, 2024) are GI50, IC50 and inhibition of growth values, retold here.

In assay [1] the test system is HeLa. As to the kind of experiment: Growth inhibition of human HeLa cells by SRB assay. The format is functional. A general note: Sulforhodamine B stains cellular protein and so reports cell mass.
Assay [2] deals with B16-F10. As to the kind of experiment: Cytotoxicity against mouse B16-F10 cells assessed as reduction in cell viability incubated for 48 hrs by MTT assay. Type of assay: functional, cell-based. Conditions: B16-F10, 48 h. For orientation: Formazan colour is commonly taken as a measure of viable cells.
The subject of assay [3] is HepG2. As to the kind of experiment: Cytotoxicity against human HepG2 cells assessed as reduction in cell viability incubated for 24 hrs by MTT assay. Type of assay: functional, cell-based. Conditions: HepG2, 24 h.
The test system of assay [4] is HCT-116. As to the kind of experiment: Cytotoxicity against human HCT-116 cells assessed as reduction in cell viability incubated for 24 hrs by MTT assay. Type of assay: functional, cell-based. The settings on record: HCT-116, 24 h.
For assay [5], the system named is A549. As to the kind of experiment: Cytotoxicity against human A549 cells assessed as reduction in cell viability incubated for 24 hrs by MTT assay. Type of assay: functional, cell-based. Conditions: A549, 24 h.
For assay [6], the system named is MCF7. As to the kind of experiment: Cytotoxicity against human MCF7 cells assessed as reduction in cell viability incubated for 24 hrs by MTT assay. Type of assay: functional, cell-based. Conditions: MCF7, 24 h.
For assay [7], the system named is MCF7. As to the kind of experiment: Cytotoxicity against human MCF7 cells assessed as reduction in cell growth by MTT assay. The format is functional, cell-based.
In assay [8] the test system is A549. As to the kind of experiment: Cytotoxicity against human A549 cells assessed as reduction in cell growth by MTT assay. The format is functional, cell-based.
The subject of assay [9] is HepG2. As to the kind of experiment: Cytotoxicity against human HepG2 cells assessed as reduction in cell growth by MTT assay. The format is functional, cell-based.
Assay [10] concerns MCF7. The experiment in a line: Cytotoxicity against human MCF7 cells assessed as reduction in cell viability by MTT assay. Type of assay: functional, cell-based.
Assay [11] concerns SW1573. As to the kind of experiment: Growth inhibition of human SW1573 cells. The format is functional.
The test system of assay [12] is HBL-100. As to the kind of experiment: Growth inhibition of human HBL-100 cells. Type of assay: functional.
In assay [13] the test system is HeLa. As to the kind of experiment: Growth inhibition of human HeLa cells. The format is functional.
Assay [14] deals with A549. As to the kind of experiment: Growth inhibition of human A549 cells. Type of assay: functional.
In assay [15] the test system is WiDr. The experiment in a line: Growth inhibition of human WiDr cells. The format is functional.
The test system of assay [16] is T47D. The experiment in a line: Growth inhibition of human T47D cells. Type of assay: functional.
For assay [17], the system named is K562. As to the kind of experiment: Growth inhibition of human K562 cells at 10 uM incubated for 24 hrs by MTT assay. The format is functional. Conditions: read-out: GI.
Assay [18] relates to UO-31. The experiment in a line: Growth inhibition of human UO-31 cells at 10 uM by SRB assay relative to control. The format is functional. Conditions: read-out: GI.
The subject of assay [19] is HOP-92. The experiment in a line: Growth inhibition of human HOP-92 cells at 10 uM by SRB assay relative to control. The format is functional. The settings on record: read-out: GI.
Assay [20] relates to HOP-62. As to the kind of experiment: Growth inhibition of human HOP-62 cells at 10 uM by SRB assay relative to control. The format is functional. The settings on record: read-out: GI.
For assay [21], the system named is A498. The experiment in a line: Growth inhibition of human A498 cells at 10 uM by SRB assay relative to control. The format is functional. The settings on record: read-out: GI.
The subject of assay [22] is CCRF-CEM. The experiment in a line: Growth inhibition of human CCRF-CEM cells at 10 uM by SRB assay relative to control. The settings on record: read-out: GI. Type of assay: functional.
Assay [23] deals with HCT 116 TP53(-/-). As to the kind of experiment: Antiproliferative activity against human HCT116-p53-null cells assessed as reduction in cell viability by MTT assay. Type of assay: functional, cell-based.
The subject of assay [24] is MDA-MB-231. As to the kind of experiment: Cytotoxicity against human MDA-MB-231 cells assessed as reduction in cell viability incubated for 48 hrs by MTT assay. The format is functional, cell-based. Conditions: MDA-MB-231, 48 h.
Assay [25] has as its system Hs-578T. As to the kind of experiment: Growth inhibition of human Hs-578T cells at 10 uM by SRB assay relative to control. The settings on record: read-out: GI. The format is functional.
Assay [26] deals with CAKI-1. As to the kind of experiment: Growth inhibition of human CAKI-1 cells at 10 uM by SRB assay relative to control. Type of assay: functional. Conditions: read-out: GI.
Assay [27] concerns TK-10. As to the kind of experiment: Growth inhibition of human TK-10 cells at 10 uM by SRB assay relative to control. The format is functional. The settings on record: read-out: GI.
In assay [28] the test system is HT-29. The experiment in a line: Cytotoxicity against human HT-29 cells assessed as reduction in cell viability incubated for 72 hrs by MTT assay. Conditions: HT-29, 72 h. The format is functional, cell-based.
Assay [29] has as its system A549. The experiment in a line: Cytotoxicity against human A549 cells assessed as reduction in cell viability incubated for 72 hrs by MTT assay. Type of assay: functional, cell-based. Conditions: A549, 72 h.
Assay [30] deals with HeLa. The experiment in a line: Anticancer activity against human HeLa cells assessed as reduction in cell growth incubated for 48 hrs by MTT assay. Type of assay: functional, cell-based.
The test system of assay [31] is MCF7. The experiment in a line: Anticancer activity against human MCF7 cells assessed as reduction in cell growth incubated for 48 hrs by MTT assay. The settings on record: MCF7, 48 h. The format is functional, cell-based.
The test system of assay [32] is A549. The experiment in a line: Anticancer activity against human A549 cells assessed as reduction in cell growth incubated for 48 hrs by MTT assay. Type of assay: functional, cell-based. Conditions: A549, 48 h.

In brackets after ≈: the same amount, converted by molar mass. Where only a bound is given, the exact number is not on record here.

Consider `CC(=O)NC1=NN(C(C)=O)C(c2cc3cc(Cl)ccc3n3nnnc23)S1` (stereo not given), for which the GI50 in assay [1] is below 0.1 µM.
Consider `COc1cc2nccc(Oc3ccc(NC(=O)Nc4cc(C)on4)c(Cl)c3)c2cc1OC` [TIVOZANIB], for which the IC50 in assay [2] amounted to 18.8 µM.
For `N#CC1=C(N)Oc2c(ccc3cccnc23)C1c1cccc(Cl)c1` (stereo not given), the IC50 turned out to be 1.87 µg/mL (≈ 5.6 µM) in assay [3], 1.35 µg/mL (≈ 4.04 µM) in assay [4], 1.23 µg/mL (≈ 3.69 µM) in [5] and 1.42 µg/mL (≈ 4.25 µM) in assay [6].
Consider `N#CC1C(=S)N=C2C(=C1c1ccc(Cl)cc1)CCC/C2=C\c1ccc(Cl)cc1` (stereo not given), for which the values for the IC50 in assay [7], in [8] and in assay [9] were 3.17 µg/mL (≈ 7.49 µM), 25.5 µg/mL (≈ 60.3 µM) and 2.86 µg/mL (≈ 6.76 µM), respectively.
`COC(=O)c1c(C(F)(F)F)nc2c(c1-c1ccc(S(=O)(=O)c3ccccc3)cc1)C(=O)CC(C)(C)C2`: in [10], the IC50 was 0.002 µM.
For `CCOc1cc2ncc(C#N)c(Nc3ccc(F)c(Cl)c3)c2cc1NC(=O)/C=C/CN(C)C` [PELITINIB], the GI50 came to 20 µM in assay [11]; 19 µM in assay [12]; 8.3 µM in assay [13]; 7.7 µM in assay [14]; 12 µM in [15]; 16 µM in assay [16].
For `COc1ccc(-c2cn3c4c(cccc24)CCC3)cc1`, the inhibition of growth at 10 µM in assay [17] turned out to be 66%.
With `Cc1cc(=O)n(C(=O)Nc2ccc(F)c(Cl)c2)c2cc(O)ccc12`, the inhibition of growth at 10 µM in [18] was found to be 30%; in assay [19], 27.4%; in assay [20], 17.6%; in assay [21], 20.5%; in assay [22], 58.6%.
Turning to `N#CC1=C(N)Oc2c(ccc3cccnc23)C1c1ccc(Br)cc1` (stereo not given), the IC50 in [3] came out at 1.41 µg/mL (≈ 3.73 µM); in [4], 1.3 µg/mL (≈ 3.44 µM); in [5], 38 µg/mL (≈ 100 µM); in [6], 1.17 µg/mL (≈ 3.09 µM).
As to `COc1ccc(Nc2nc3ccccc3c(NCc3ccccc3Cl)c2[N+](=O)[O-])cc1`, in assay [23], the IC50 stood at 4.8 µM.
With `COC1=C(N)C(=O)c2nc(-c3nc(C(=O)O)c(C)c(-c4ccc(OC)c(OC)c4O)c3N)ccc2C1=O` [STREPTONIGRIN], in assay [24], the IC50 turned out to be 30.5 µM.
With `Cc1cc(=O)n(C(=O)Nc2ccccc2)c2cc(O)ccc12`, the inhibition of growth at 10 µM was 23.1% in assay [18]; 11.5% in [25]; 16% in assay [19]; 12.4% in assay [26]; 82.9% in assay [27].
In the case of `COc1cc(/C=C2\OCc3nc4ccccc4c(C)c3C2=O)cc(OC)c1OC`, the IC50 is 6.69 µg/mL (≈ 17.1 µM) in [28] and 3.68 µg/mL (≈ 9.4 µM) in assay [29].
As to `COc1cccc(-n2nnc3c2-c2ccc4cccnc4c2OC3)c1`, the IC50 was 15.7 µM in assay [30] and 31.4 µM in [31].
Consider `CCOc1cc2ncc(C#N)c(Nc3ccc(OCc4ccccn4)c(Cl)c3)c2cc1NC(=O)/C=C/CN(C)C` [NERATINIB], for which, in assay [12], the GI50 stood at 1.6 µM.
In the case of `COc1cc2nccc(Oc3ccc(NC(=O)NC4CC4)c(Cl)c3)c2cc1C(N)=O` [LENVATINIB], the GI50 in assay [11] stood at 8 µM; in [12] it was 10 µM; in [13], 4 µM; in [14], 12 µM; in [15], 19 µM; in [16] it was 10 µM.
Consider `N#CC1=C(N)Oc2c(cc(Cl)c3cccnc23)C1c1cccc(Cl)c1Cl` (stereo not given), for which the IC50 worked out at 1.48 µg/mL (≈ 3.68 µM) in assay [3], 7.94 µg/mL (≈ 19.7 µM) in assay [4], 15.6 µg/mL (≈ 38.7 µM) in assay [5] and 2.47 µg/mL (≈ 6.13 µM) in assay [6].
Turning to `COc1ncc(-c2cc(-c3cn(Cc4ccccc4F)nn3)cc3ccc(C)nc23)cc1F`, the IC50 in assay [24] was 20.6 µM.
Consider `Cc1cc(C)cc(-n2nnc3c2-c2ccc4cccnc4c2OC3)c1`, for which the IC50 in [32] worked out at 32.5 µM; in [30], 11.4 µM; in assay [31], 16.9 µM.
As for `N#CC1C(=S)N=C2C(=C1c1ccc(F)cc1)CCC/C2=C\c1ccc(F)cc1` (stereo not given), the IC50 was determined as 13.1 µg/mL (≈ 33.7 µM) in [7], 28.4 µg/mL (≈ 72.9 µM) in [8] and 11.2 µg/mL (≈ 28.8 µM) in assay [9].
